Reference: ChEMBL document CHEMBL6096729, “Creating Glepaglutide, the First Long-Acting GLP-2 Analogue to Enable a Ready-to-Use Injection” (J Med Chem, 2025)

How the values were obtained:
[1] = molecular target: T1, Glucagon-like peptide 2 receptor (Homo sapiens) (UniProt O95838); test: Agonist activity at recombinant human GLP-2R overexpressed in HEK293 cells assessed as cAMP accumulation by HTRF assay relative to control; assay type: functional, cell-based; conditions: filed as agonist
T1 sequence (whole entry): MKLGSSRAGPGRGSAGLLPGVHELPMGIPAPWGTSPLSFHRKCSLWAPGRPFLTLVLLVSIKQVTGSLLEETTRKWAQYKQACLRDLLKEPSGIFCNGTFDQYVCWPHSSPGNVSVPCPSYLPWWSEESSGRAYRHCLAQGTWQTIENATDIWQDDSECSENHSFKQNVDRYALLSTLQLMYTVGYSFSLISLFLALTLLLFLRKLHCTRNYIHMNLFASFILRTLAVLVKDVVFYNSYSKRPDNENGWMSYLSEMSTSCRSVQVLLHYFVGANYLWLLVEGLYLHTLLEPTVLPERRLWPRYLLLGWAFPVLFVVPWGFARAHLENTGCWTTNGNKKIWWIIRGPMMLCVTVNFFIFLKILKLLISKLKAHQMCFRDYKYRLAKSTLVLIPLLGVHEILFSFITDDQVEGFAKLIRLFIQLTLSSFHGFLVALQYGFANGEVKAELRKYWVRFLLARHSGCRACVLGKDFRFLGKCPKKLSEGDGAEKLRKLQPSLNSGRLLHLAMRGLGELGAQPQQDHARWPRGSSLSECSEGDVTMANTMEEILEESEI

[2] = Stability of compound assessed as change in fluorescence intensity measured after 96 hrs by ThT fibrillation assay; assay type: physicochemical
[3] = test system: Mus musculus; test: Effect on small intestine of C57BL mouse assessed as mass of small intestine at 30 nmol/kg bid for 10 days relative to teduglutide; assay type: functional; conditions: time 10 day
[4] = molecular target: T2, Glucagon-like peptide 2 receptor (Homo sapiens, UniProt O95838); test: Agonist activity at recombinant human GLP-2R overexpressed in HEK293 cells assessed as cAMP accumulation by HTRF assay; assay type: functional, cell-based
T2 sequence (O95838 whole entry): T1 sequence (whole entry)

[5] = Half life in human; assay type: ADME
[6] = Chemical stability in 50 mM Histidine at pH 7.0 at 40 degreeC assessed as fold decrease in total degradation measured after 3 weeks by HPLC analysis relative to teduglutide; assay type: physicochemical; conditions: buffer, pH 7, 504 h

| Compound | Efficacy [1] | Flu intensity [2] | Activity [2] | Activity [3] | EC50 [4] | half-life [5] | fold change (FC) [6] |
| --- | --- | --- | --- | --- | --- | --- | --- |
| CC[C@H](C)[C@H](NC(=O)[C@H](Cc1ccccc1)NC(=O)[C@H](CC(=O)O)NC(=O)[C@H](CCCNC(=N)N)NC(=O)[C@H](C)NC(=O)[C@H](C)NC(=O)[C@H](CC(C)C)NC(=O)[C@H](CC(N)=O)NC(=O)[C@H](CC(=O)O)NC(=O)[C@H](CC(C)C)NC(=O)[C@@H](NC(=O)[C@@H](NC(=O)[C@H](CC(N)=O)NC(=O)[C@H](CCSC)NC(=O)[C@H](CCC(=O)O)NC(=O)[C@H](CC(=O)O)NC(=O)[C@H](CO)NC(=O)[C@H](Cc1ccccc1)NC(=O)[C@H](CO)NC(=O)CNC(=O)[C@H](CC(=O)O)NC(=O)CNC(=O)[C@@H](N)Cc1c[nH]cn1)[C@@H](C)O)[C@@H](C)CC)C(=O)N[C@@H](CC(N)=O)C(=O)N[C@@H](Cc1c[nH]c2ccccc12)C(=O)N[C@@H](CC(C)C)C(=O)N[C@H](C(=O)N[C@@H](CCC(N)=O)C(=O)N[C@H](C(=O)N[C@@H](CCCCN)C(=O)N[C@H](C(=O)N[C@H](C(=O)N[C@@H](CC(=O)O)C(=O)O)[C@@H](C)O)[C@@H](C)CC)[C@@H](C)O)[C@@H](C)CC | 101% | – | – | – | – | – | – |
| H-HGEGSFSDELSTILDALAARDFIAWLIATKITD-NH2 | – | 500 RFU | – | – | – | – | – |
| H-HGEGSFSDELSTILDALAARDFIAWLIATKITDKKKKKK-OH | – | – | Not_active | – | – | – | – |
| H-HGEGSFSSELSTILDALAARDFIAWLIATKITD-NH2 | 102% | 500 RFU | – | 106% | 0.11 nM | – | – |
| H-HGEGSFSSELSTILDALAARDFIAWLIATKITDKKKKKK-NH2 | 100% | – | Not_active | 109% | 0.18 nM | – | – |
| H-HGEGTFSDELSTILDALAARDFIAWLIATKITD-NH2 | 104% | 500 RFU | – | 98% | 0.09 nM | – | – |
| H-HGEGTFSDELSTILDALAARDFIAWLIATKITDKKKKKK-NH2 | 102% | – | Not_active | 105% | 0.34 nM | – | – |
| H-HGEGTFSSELATILDALAARDFIAWLIATKITD-NH2 | 100% | – | Not_active | 117% | 0.1 nM | – | – |
| H-HGEGTFSSELATILDALAARDFIAWLIATKITDKKKKKK-NH2 | 102% | – | Not_active | 109% | 0.18 nM | 88 h | 2.6 |
| H-HGEGTFSSELSTILDALAARDFIAWLIATKITD-NH2 | 101% | 500 RFU | – | 101% | 0.18 nM | – | – |
| H-HGEGTFSSELSTILDALAARDFIAWLIATKITDKKKKKK-NH2 | 102% | – | Not_active | 106% | 0.37 nM | – | – |
